Data taken from paper PMC9264115, “Pd-catalyzed C–C and C–N cross-coupling reactions in 2-aminothieno[3,2-d]pyrimidin-4(3H)-one series for antiplasmodial pharmacomodulation” (RSC Advances, 2022).
Like-named read-outs stand apart in the source and are kept apart here.

Columns and labels:
HepG2 cell line = details: cited from earlier work
[1] = tested on: K1 culture-adapted P. falciparum strain; parameters: method as in PMID 25791675; details: K1 strain of P. falciparum; reference values; read-out: EC50 PfK1; cited from earlier work
Microsomal stability = assay type: in vitro ADME, mouse; details: for half-life: CD-1, read-out: t1/2 (half-time, microsomal stability); for half-life / Clint (intrinsic clearance): in vitro, female mouse microsomes, 37 °C, pH 7.4
Procedure: The tested product and propranolol, used as a reference, were incubated in duplicate (reaction mixture volume of 0.5 mL) with female mouse microsomes (CD-1, 20 mg mL; BD Gentest) at 37 °C in a 50 mM phosphate buffer, pH 7.4, in the presence of MgCl2 (5 mM), NADP (1 mM), glucose-6-phosphate dehydrogenase (G6PD) (0.4 U per mL), and glucose-6-phosphate (5 mM). For the estimation of the intrinsic clearance, 50 μL aliquots were collected at 0, 5, 10, 20, 30, and 40 min and the reaction was stopped with 4 volumes of acetonitrile (ACN) containing the internal standard. After centrifugation at 10 000×g for 10 min at 4 °C, the supernatants were conserved at 4 °C for immediate analysis or placed at −80 °C in case of postponement of the analysis. Controls (time zero and final time point) in triplicate were prepared by the incubation of the internal standard with microsomes denatured by acetonitrile. The LC-MS system used for this study was a Waters Acquity I-Class/Xevo TQD equipped with a Waters Acquity BEH C18 column, 50 by 2.1 mm, 1.7 μm. The mobile phases were 10 mM ammonium acetate (mobile phase A) and acetonitrile with 0.1% formic acid (mobile phase B). The injection volume was 1 μL, and the flow rate was 600 μL min^−1. Chromatographic analysis, with a total duration of 4 min, was made with the following gradient: 0 < t < 0.2 min, 2% mobile phase B; 0.2 < t < 2 min, linear increase to 98% mobile phase B; 2 < t < 2.5 min, 98% mobile phase B; 2.5 < t < 2.6 min, linear decrease to 2% mobile phase B; 2.6 < t < 4 min, 2% mobile phase B. The quantification of each compound was obtained by converting the average of the ratios of the analyte/internal standard surfaces to the percentage of consumed product. The ratio of the control at t0 corresponded to 0% of the product consumed. The calculation of the half-life (t1/2) of each compound in the presence of microsomes was carried out according to the equation t1/2 = (ln2)/k, where k is the first-order degradation constant (the slope of the logarithm of the compound concentration versus incubation time). The intrinsic clearance in vitro (Clint, expressed in mlmin^−1mg) was calculated according to the equation Clint = (dose/AUC∞)/[microsomes], where dose is the initial concentration of the product in the sample, AUC∞ is the area under the concentration–time curve extrapolated to infinity, and [microsomes] is the microsome concentration expressed in mg μL^−1.

[2] = tested on: K1 culture-adapted P. falciparum strain; assay: Antiplasmodial evaluation, SYBR Green I fluorescence-based drug susceptibility test; assay type: cell-based; details: Plasmodium falciparum; multi-resistant K1 strain of P. falciparum, 72 h incubation, three independent experiments; read-out: EC50 PfK1
Procedure: […]. Parasitemia was maintained daily between 1 and 3%. The P. falciparum drug susceptibility test was carried out by comparing quantities of DNA in treated and control cultures of parasite in human erythrocytes according to a SYBR Green I fluorescence-based method[19] using a 96-well fluorescence plate reader. Compounds previously dissolved in DMSO (final concentration less than 0.5% v/v) were incubated in a total assay volume of 200 μL (RPMI, 2% hematocrit and 0.4% parasitemia) for 72 h in a humidified atmosphere (10% O2 and 5% CO2) at 37 °C in 96-well flat bottom plates. Duplicate assays were performed for each sample. After incubation, plates were frozen at […] for 24 h. Then, the frozen plates were thawed for 1 h at 37 °C. Fifteen μL of each sample were transferred to 96-well flat bottom non-sterile black plates (Greiner Bio-one, Kremsmünster, Austria), already containing 15 μL of the SYBR Green I lysis buffer (2X SYBR Green I, 20 mM Tris base pH 7.5, 20 mM EDTA, 0.008% w/v saponin, 0.08% w/v Triton X-100). […] Plates were incubated for 15 min at 37 °C and then read on a TECAN Infinite F-200 spectrophotometer with excitation and emission wavelengths at 485 and 535 nm, respectively.

[3] = Cytotoxic evaluation, MTT assay; assay type: cell-based; details: HepG2 cells, human HepG2 cell line, three independent experiments
Procedure: The HepG2 cell line was maintained at 37 °C, 5% CO2, at 90% humidity in […] supplemented with 10% fetal bovine serum, 1% L-glutamine (200 mM), and penicillin (100 U per mL)/streptomycin (100 μg mL^−1) (complete RPMI medium). The cytotoxicity of the tested molecules on the HepG2 (hepatocarcinoma cell line purchased from ATCC, ref HB-8065) cell line was assessed according to the method of Mosmann[20] with slight modifications. Briefly, 5 × 10^3 cells in 100 μL of complete medium were inoculated into each well of 96-well plates and incubated at 37 °C in humidified 5% CO2. After 24 h incubation, 100 μL of medium with various product concentrations dissolved in DMSO (final concentration less than 0.5% v/v) were added and the plates were incubated for 72 h at 37 °C. Triplicate assays were performed for each sample. Each plate was then microscopically examined for possible precipitate formation before the medium was aspirated from the wells. Next, 100 μL of MTT (3-(4,5-dimethyl-2-thiazolyl)-2,5-diphenyl-2H-tetrazolium bromide) solution (0.5 mg mL^−1 in medium without FBS) was added to each well. Cells were incubated for 2 h at 37 °C. After this time, the MTT solution was removed and DMSO (100 μL) was added to dissolve the resulting blue formazan crystals. Plates were shaken vigorously (700 rpm) for 10 min. The absorbance was measured at 570 nm with 630 nm as a reference wavelength using a BIO-TEK ELx808 Absorbance Microplate Reader (LabX, Midland, ON, Canada). DMSO was used as a blank and doxorubicin (purchased from Sigma Aldrich) as a positive control. Cell viability was calculated as a percentage of control (cells incubated without the compound). […] CC50 values to represent the mean value calculated from three independent experiments.

[4] = read-out: CC50 HepG2, human HepG2 cell line, reference values

| SMILES | CC50 (HepG2 cell line; [4]) [nM] | EC50 [1] [nM] | also measured |
| --- | --- | --- | --- |
| O=C1C(O)=C([C@H]2CC[C@H](c3ccc(Cl)cc3)CC2)C(=O)c2ccccc21 [Atovaquone, atovaquone] | > 15600 | 1.3 | – |
| CC(C)(C)Nc1nc2cc(N3CCCCC3)sc2c(=O)[nH]1 [Compound 1g, 2-tert-Butylamino-6-(piperidin-1-yl)thieno[3,2-d]pyrimidin-4(3H)-one] | – | – | half-life (Microsomal stability): 40 min; Clint (intrinsic clearance) (Microsomal stability): 42 μLmin^−1mg; improvement in the half-time versus M1 (Microsomal stability; mouse microsomes, piperidine moiety (1g) vs tolyl moiety (M1)): more than 3 fold; EC50 [2]: 770 ± 130 nM; CC50 at 72 h [3]: 33900 ± 1400 nM |
| CCN(CC)CCCC(C)Nc1ccnc2cc(Cl)ccc12 (centres unmarked) [Chloroquine, chloroquine] | – | 500 | – |
| Cc1ccc(-c2cc3nc(NC(C)(C)C)[nH]c(=O)c3s2)cc1 [Compound M1, gamhepathiopine, reference compound] | 24000 | 45 | half-life (Microsomal stability): 11 min; Clint (intrinsic clearance) (Microsomal stability): 240 μLmin^−1mg |
| Cc1ccc(-c2cc3nc(NC(C)(C)C)[nH]c(=O)c3s2)cc1 [M1 (free base), gamhepathiopine] | 25600 | 200 | – |
| C[C@H]1c2cccc(O)c2C(=O)C2=C(O)[C@]3(O)C(=O)C(C(N)=O)=C(O)[C@@H](N(C)C)[C@@H]3[C@@H](O)[C@@H]21 [Doxycycline, doxycycline] | 20000 | 5000 | – |
| COc1cccc2c1C(=O)c1c(O)c3c(c(O)c1C2=O)C[C@@](O)(C(=O)CO)C[C@@H]3O[C@H]1C[C@H](N)[C@H](O)[C@H](C)O1 [Doxorubicine, doxorubicine] | – | – | CC50 (HepG2 cell line): 200 nM |
